From US20220202810A1 (Lake O'Hara LLC, priority 2020, published 2022)
Like-named read-outs stand apart in the source and are kept apart here.

Tests used:
[1] = PBPK modeling of schizophrenia patients, FDA label and modified dosing regimens; set-up: species or system human; conditions: for Days Reduced to Reach Pharmacokinetic Endpoints: EC50 / Days Reduced to Reach Pharmacokinetic Endpoints: EC80 / Days Reduced to Reach Pharmacokinetic Endpoints: Steady State: modified regimen of Table F vs FDA label, Obese
From the text: PBPK Modeling of Patients Dosed with Brexpiprazole According to the FDA Label
Although the PBPK modeling was based on the dosing regimen for schizophrenia according to the FDA label (REXULTI®, 3/2020), pharmacokinetic parameters are dose-dependent and expected to be similar in MDD.
In order to simulate brexpiprazole under various conditions, a whole-body PBPK model was constructed to capture the drug's kinetics in major tissues. Model tissue compartments included adipose, bone, brain, large intestine, small intestine, heart, kidney, liver, lung, muscle, spleen, stomach, and skin tissues, as well as venous and arterial blood compartments. In order to accurately capture first-pass clearance effects on the drug, the model also included correct representation of the gastrointestinal tract organs and the liver. […] Drug distribution into each tissue compartment was modeled assuming perfusion-limited kinetics, with partitioning into tissue described by a partition coefficient (Kp) estimated using methods described by Poulin and Theil (2002). Brexpiprazole-specific biochemical parameters such as the log of octanol:water partition coefficient (logP), negative log acid dissociation constant (pKa), fraction unbound in the plasma (fup), blood:plasma concentration ratio (BP), and clearance were obtained from literature; additional physiochemical properties used to calculate Kps were obtained via DrugBank. […] Simulations were carried out in a virtual population of 500 normal-weight and 500 obese individuals with age- and sex-specific physiological parameters (i.e. tissue flows and volumes) sampled from the National Health and Nutrition Examination Survey (NHANES) dataset.
PBPK Modeling of Schizophrenia Patients Treated with Higher Doses According to Modified Methods
A modified dosing regimen was developed so that obese and CYP2D6 PM patients reach therapeutic levels earlier (Table F). […] On day 8, patients returned to administering the recommended dose once daily. […] On day 15, patients returned to administering the recommended dose once daily.

[2] = cited from earlier work
[3] = cited from earlier work; remark: listed apart in the source
[4] = brexpiprazole patients; cited from earlier work

O=c1ccc2ccc(OCCCCN3CCN(c4cccc5sccc45)CC3)cc2[nH]1 [Brexpiprazole, 7-{4-[4-(1-Benzothiophen-4-yl)piperazin-1-yl]butoxy}quinolin-2(1H)-one]
Days Reduced to Reach Pharmacokinetic Endpoints: EC50 ([1]; EM): 3 days
Days Reduced to Reach Pharmacokinetic Endpoints: EC80 ([1]; EM): 3 days
Days Reduced to Reach Pharmacokinetic Endpoints: Steady State ([1]; EM): -4 days
Days Reduced to Reach Pharmacokinetic Endpoints: EC50 ([1]; PM): 2 days
Days Reduced to Reach Pharmacokinetic Endpoints: EC80 ([1]; PM): 5 days
Days Reduced to Reach Pharmacokinetic Endpoints: Steady State ([1]; PM): -29 days
time to reach therapeutic concentrations vs once daily dosing ([1]; schizophrenia, normal-weight CYP2D6 PM, Modified Dosing Regimen 3): three days faster
time to reach therapeutic concentrations vs FDA label dosing ([1]; schizophrenia, obese CYP2D6 EM, twice the starting and recommended daily doses for the first 7 days): three days faster
time to reach therapeutic concentrations vs once daily dosing ([1]; schizophrenia, obese CYP2D6 PM, twice the starting and recommended daily doses for the first 14 days): five days faster
AUC Observed ([2]; NDA Study1, IV, 0.25 mg): 172 ng·h/mL
Cmax Observed ([2]; NDA Study1, IV, 0.25 mg): 4.73 ng/mL
Tmax Observed ([2]; NDA Study1, IV, 0.25 mg): 1 h
AUC Observed ([2]; NDA Study1, PO, 0.2 mg): 123 ng·h/mL
Cmax Observed ([2]; NDA Study1, PO, 0.2 mg): 2.62 ng/mL
Tmax Observed ([2]; NDA Study1, PO, 0.2 mg): 2 h
AUC Observed ([2]; NDA Study1, PO, 0.5 mg): 287 ng·h/mL
Cmax Observed ([2]; NDA Study1, PO, 0.5 mg): 6.64 ng/mL
Tmax Observed ([2]; NDA Study1, PO, 0.5 mg): 4 h
AUC Observed ([2]; NDA Study1, PO, 1 mg): 636 ng·h/mL
Cmax Observed ([2]; NDA Study1, PO, 1 mg): 11.70 ng/mL
Tmax Observed ([2]; NDA Study1, PO, 1 mg): 6 h
AUC Observed ([2]; NDA Study1, PO, 2 mg): 1690 ng·h/mL
Cmax Observed ([2]; NDA Study1, PO, 2 mg): 22.10 ng/mL
Tmax Observed ([2]; NDA Study1, PO, 2 mg): 6 h
AUC Observed ([2]; NDA Study2, PO, 2 mg): 2160 ng·h/mL
Cmax Observed ([2]; NDA Study2, PO, 2 mg): 24.60 ng/mL
Tmax Observed ([2]; NDA Study2, PO, 2 mg): 4 h
AUC Observed ([2]; NDA Study2, PO, 4 mg): 2760 ng·h/mL
Cmax Observed ([2]; NDA Study2, PO, 4 mg): 47.20 ng/mL
Tmax Observed ([2]; NDA Study2, PO, 4 mg): 6 h
AUC Observed ([2]; NDA Study2, PO, 6 mg): 5230 ng·h/mL
Cmax Observed ([2]; NDA Study2, PO, 6 mg): 71.10 ng/mL
Tmax Observed ([2]; NDA Study2, PO, 6 mg): 6 h
AUC Observed ([2]; NDA Study2, PO, 8 mg): 7920 ng·h/mL
Cmax Observed ([2]; NDA Study2, PO, 8 mg): 79.20 ng/mL
Tmax Observed ([2]; NDA Study2, PO, 8 mg): 6 h
decrease of baseline clearance by CYP2D6 PM status ([3]; CYP2D6 PM): ~30%
brexpiprazole clearance due to CYP3A4 ([3]; based on the literature): 46.7%
clearance due to other routes ([3]; based on the literature): 10%
remaining clearance due to CYP2D6 ([3]; based on the literature): 43.3%
effect of weight on the pharmacokinetics of brexpiprazole ([3]; previous studies, no patients with BMI>35 kg/m^2): less than 20%
renal clearance ([3]; share of brexpiprazole clearance): ~1%
akathisia rates [4]: dose-dependent
